Reference: patent US8846908B2, “Tricyclic carbamate JAK inhibitors” (Rigel Pharmaceuticals, Inc., priority 2008, dated 2014)

The compounds below were run against BaF3 V617F cells (Homo sapiens, UniProt O60674, V617F, cells depend on it) (assay: Proliferation assay, BaF3 V617F cells (Cell Titer-Glo)). Details: proliferation for 72 hours at 37° C., stated to show ability to inhibit JAK2 activity, read-out: IC50 (the source's name).
BaF3 V617F cells, sequence (O60674 whole entry V617F): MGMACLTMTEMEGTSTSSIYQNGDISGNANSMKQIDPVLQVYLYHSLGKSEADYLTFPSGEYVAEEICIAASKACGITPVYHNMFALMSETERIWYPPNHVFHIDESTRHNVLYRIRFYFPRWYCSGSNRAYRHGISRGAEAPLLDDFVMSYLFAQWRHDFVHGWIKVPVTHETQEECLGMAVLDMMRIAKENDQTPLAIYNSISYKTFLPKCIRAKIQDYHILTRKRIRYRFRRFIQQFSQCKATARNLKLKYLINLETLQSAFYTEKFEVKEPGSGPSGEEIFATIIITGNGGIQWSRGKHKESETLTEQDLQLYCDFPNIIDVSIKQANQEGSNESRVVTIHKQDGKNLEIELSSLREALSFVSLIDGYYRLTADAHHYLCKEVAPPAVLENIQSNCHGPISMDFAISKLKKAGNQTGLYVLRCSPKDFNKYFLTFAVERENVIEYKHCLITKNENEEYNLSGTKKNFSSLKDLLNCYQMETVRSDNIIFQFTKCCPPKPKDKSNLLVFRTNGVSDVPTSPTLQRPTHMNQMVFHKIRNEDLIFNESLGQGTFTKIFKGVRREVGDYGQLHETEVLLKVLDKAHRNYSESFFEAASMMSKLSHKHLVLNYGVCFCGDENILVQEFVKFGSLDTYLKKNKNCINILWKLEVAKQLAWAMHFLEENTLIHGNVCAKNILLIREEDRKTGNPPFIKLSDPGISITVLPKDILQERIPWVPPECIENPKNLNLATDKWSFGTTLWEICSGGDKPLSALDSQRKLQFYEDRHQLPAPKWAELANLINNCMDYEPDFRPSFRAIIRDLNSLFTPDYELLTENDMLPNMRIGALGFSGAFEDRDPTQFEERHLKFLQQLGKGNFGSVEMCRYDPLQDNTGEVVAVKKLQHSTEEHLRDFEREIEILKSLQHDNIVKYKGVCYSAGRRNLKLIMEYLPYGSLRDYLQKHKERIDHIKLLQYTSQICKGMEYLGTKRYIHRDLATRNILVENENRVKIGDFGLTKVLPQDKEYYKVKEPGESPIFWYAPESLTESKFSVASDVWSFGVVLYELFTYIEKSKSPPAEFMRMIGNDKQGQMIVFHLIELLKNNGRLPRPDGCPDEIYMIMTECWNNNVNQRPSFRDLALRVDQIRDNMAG
Type: cell-based, mouse
Method: BaF3 V617F cells are maintained and plated in RPMI with 10% FBS. Plating density for these cells is 1×10^5 cells/mL.
The cells were resuspended in a corresponding medium at a required cell density (see above). 100μ of cell suspension was added to each well of a flat bottom 96 well white plate. The compound was serially diluted in DMSO from 5 mM in 3-fold dilutions, and then diluted 1:250 in the RPMI 1640 medium containing 5% FBS and pen/strep. 100 μL of resulting 2× compound solution was added per well in duplicate and the cells were allowed to proliferate for 72 hours at 37° C.
Proliferation was measured using Cell Titer-Glo. The substrate was thawed and allowed to come to room temperature. After removal of top 100 μL of medium from each well, 100 μL of the premixed Cell Titer-Glo reagent was added to each well. The plates were mixed on an orbital shaker for three minutes to induce lysis and incubated at ambient temperature for an additional five minutes to allow the signal to equilibrate. The Luminescence was read on the Wallac Plate Reader.
The results of the ability of the compounds of the invention to inhibit JAK2 activity, when tested in the above assay, are shown in the following Table 2 wherein the level of activity (i.e., the IC50) for each compound is indicated in Table 2. The compound numbers in Table 2 refers to the compounds disclosed herein as being prepared by the methods disclosed herein.
For `CCCN1C(=O)COc2ccc(Nc3nc(Nc4ccc5c(c4)[C@H]4NC(=O)O[C@H]4C5)ncc3C)cc21` [Compound 6, 5-Methyl-N4-(4-propyl-3-oxo-2H-benz[1,4]oxazin-6-yl)-N2-[(3aR,8aS)-2-oxo-3,3a,8,8a-tetrahydro-2H-indeno[1,2-d]oxazol-5-yl]-2,4-pyrimidinediamine], the GI50 was 250 to 500 nM.
For `O=C1N[C@@H]2c3cc(Nc4ncc(F)c(Nc5ccc(OCc6ccccn6)cc5)n4)ccc3C[C@@H]2O1` [Compound 26, 5-Fluoro-N2-[(3aR,8aS)-2-oxo-3,3a,8,8a-tetrahydro-2H-indeno[1,2-d]oxazol-5-yl]-N4-[4-(pyridin-2-ylmethoxy)phenyl]-2,4-pyrimidinediamine], the GI50 was 1000 to 5000 nM.
`CCN1C(=O)C(C)(C)Oc2ccc(Nc3nc(Nc4ccc5c(c4)[C@@H]4NC(=O)O[C@@H]4C5)ncc3C)cc21` [Compound 11, N4-(2,2-Dimethyl-4-ethyl-3-oxo-benz[1,4]oxazin-6-yl)-5-methyl-N2-[(3aS,8aR)-2-oxo-3,3a,8,8a-tetrahydro-2H-indeno[1,2-d]oxazol-5-yl]-2,4-pyrimidinediamine] gave a GI50 of 250 to 500 nM.
Work on `O=C1N[C@H]2c3cc(Nc4ncc(F)c(Nc5ccc(CCc6ccncc6)cc5)n4)ccc3C[C@H]2O1` [Compound 33, 5-Fluoro-N2-[(3aS,8aR)-2-oxo-3,3a,8,8a-tetrahydro-2H-indeno[1,2-d]oxazol-5-yl]-N4-[4-[2-(pyridin-4-yl)ethyl]phenyl]-2,4-pyrimidinediamine] yielded a GI50 of 250 to 500 nM.
`O=C1N[C@@H]2c3cc(Nc4ncc(F)c(Nc5ccc(CCc6ccncc6)cc5)n4)ccc3C[C@@H]2O1` [Compound 29, 5-Fluoro-N2-[(3aR,8aS)-2-oxo-3,3a,8,8a-tetrahydro-2H-indeno[1,2-d]oxazol-5-yl]-N4-[4-[2-(pyridin-4-yl)ethyl]phenyl]-2,4-pyrimidinediamine] showed a GI50 of 250 to 500 nM.
`Cc1cnc(Nc2ccc3c(c2)[C@H]2NC(=O)CO[C@H]2C3)nc1Nc1ccc(CNS(=O)(=O)C2CC2)cc1` [Compound 39, N4-[4-[[N-(Cyclopropylsulfonyl)amino]methyl]phenyl]-5-methyl-N2-[(4aR,9aS)-3-oxo-2,3,4,4a,9a-hexahydroindeno[2,1-b][1,4]oxazin-6-yl]-2,4-pyrimidinediamine] showed a GI50 of 250 to 500 nM.
In the case of `Cc1cc(CNS(=O)(=O)C2CC2)ccc1Nc1nc(Nc2ccc3c(c2)[C@@H]2NC(=O)O[C@@H]2C3)ncc1Cl` [Compound 17, 5-Chloro-N4-[4-[[N-(cyclopropylsulfonyl)amino]methyl]-2-methylphenyl]-N2-[(3aS,8aR)-2-oxo-3,3a,8,8a-tetrahydro-2H-indeno[1,2-d]oxazol-5-yl]-2,4-pyrimidinediamine], the GI50 is reported as 1000 to 5000 nM.
`O=C1N[C@@H]2c3cc(Nc4ncc(Cl)c(Nc5cccc6c5CCCC6)n4)ccc3C[C@@H]2O1` [Compound 36, 5-Chloro-N2-[(3aR,8aS)-2-oxo-3,3a,8,8a-tetrahydro-2H-indeno[1,2-d]oxazol-5-yl]-N4-(5,6,7,8-tetrahydronaphthalen-1-yl)2,4-pyrimidinediamine] was tested, and the GI50 was 250 to 500 nM.
With `O=C1N[C@H]2c3cc(Nc4ncc(Cl)c(Nc5cccc6c5CCC6)n4)ccc3CC2O1` (stereo partly shown) [Compound 19] the GI50 was no less than 5000 nM.
With `CC(C)(C)NS(=O)(=O)c1cccc(Nc2nc(Nc3ccc4c(c3)[C@@H]3NC(=O)O[C@@H]3C4)ncc2Cl)c1` [Compound 14, 5-Chloro-N4-[3-[[(1,1-dimethylethyl)amino]sulfonyl]phenyl]-N2-[(3aS,8aR)-2-oxo-3,3a,8,8a-tetrahydro-2H-indeno[1,2-d]oxazol-5-yl]-2,4-pyrimidinediamine] the GI50 was 500 to 1000 nM.
`O=C1N[C@H]2c3cc(Nc4ncc(F)c(Nc5ccc(OCc6ccccn6)cc5)n4)ccc3C[C@H]2O1` [Compound 30, 5-Fluoro-N2-[(3aS,8aR)-2-oxo-3,3a,8,8a-tetrahydro-2H-indeno[1,2-d]oxazol-5-yl]-N4-[4-(pyridin-2-ylmethoxy)phenyl]-2,4-pyrimidinediamine] gave a GI50 of 1000 to 5000 nM.
`Cc1cnc(Nc2ccc3c(c2)[C@@H]2NC(=O)O[C@@H]2C3)nc1Nc1cccc2c1OCCO2` [Compound 24, N4-(1,4-Benzodioxan-5-yl)-5-methyl-N2-[(3aS,8aR)-2-oxo-3,3a,8,8a-tetrahydro-2H-indeno[1,2-d]oxazol-5-yl]-2,4-pyrimidinediamine] showed a GI50 of less than 250 nM.
`Cc1cnc(Nc2ccc3c(c2)[C@H]2NC(=O)O[C@H]2C3)nc1Nc1ccc(OCc2ccccn2)cc1` [Compound 27, 5-Methyl-N2-[(3aR,8aS)-2-oxo-3,3a,8,8a-tetrahydro-2H-indeno[1,2-d]oxazol-5-yl]-N4-[4-(pyridin-2-ylmethoxy)phenyl]-2,4-pyrimidinediamine] gave a GI50 of 250 to 500 nM.
